Assay results: patent publication US4684664A, “Derivatives of β-(4-isocyano-1,2,3,4-diepoxycyclopentyl) acrylic acid” (Kureha Kagaku Kogyo Kabushiki Kaisha, priority 1984, dated 1987)
In brackets after ≈: the same amount, converted by molar mass.

What was measured:
Format in all cases: cell-based
[1] = test system: Staphylococcus aureus FDA 209PJc-1; test: Antibacterial activity, agar-dilution MIC, organism No. 1; details: Staphylococcus aureus, FDA209PJC1; Organism No. 1, bouillon-agar; read-out: Minimum Inhibitory Concentration
Method in brief: (§1)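 Dilution in agar (bouillon-agar base) is the format; activity is expressed as MIC, μg per ml medium.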

[2] = test system: Staphylococcus aureus Terajima; test: Antibacterial activity, agar-dilution MIC, organism No. 2; details: Staphylococcus aureus; Organism No. 2, bouillon-agar; read-out: Minimum Inhibitory Concentration
Method in brief: as §1

[3] = test system: Staphylococcus aureus MS 353; test: Antibacterial activity, agar-dilution MIC, organism No. 3; details: Staphylococcus aureus, MS353; Organism No. 3, bouillon-agar; read-out: Minimum Inhibitory Concentration
Method in brief: as §1

[4] = test system: Streptococcus pyogenes Cook; test: Antibacterial activity, agar-dilution MIC, organism No. 4; details: Streptococcus pyogenes; Organism No. 4, bouillon-agar; read-out: Minimum Inhibitory Concentration
Method in brief: as §1

[5] = test system: Escherichia coli NIHJ-JC-2; test: Antibacterial activity, agar-dilution MIC, organism No. 5; details: Escherichia coli, NIHJJC2; Organism No. 5, bouillon-agar; read-out: Minimum Inhibitory Concentration
Method in brief: as §1

[6] = test system: Escherichia coli K12 C600 IAM 1264; test: Antibacterial activity, agar-dilution MIC, organism No. 6; details: Escherichia coli, IAM1264; Organism No. 6, bouillon-agar; read-out: Minimum Inhibitory Concentration
Method in brief: as §1

[7] = test system: Klebsiella pneumoniae PCI-602; test: Antibacterial activity, agar-dilution MIC, organism No. 7; details: Klebsiella pneumoniae, PCI602; Organism No. 7, bouillon-agar; read-out: Minimum Inhibitory Concentration
Method in brief: as §1

[8] = test system: Salmonella typhimurium IID 971; test: Antibacterial activity, agar-dilution MIC, organism No. 8; details: Salmonella enterica; Organism No. 8, bouillon-agar; read-out: Minimum Inhibitory Concentration
Method in brief: as §1

[9] = test system: Salmonella typhi 901; test: Antibacterial activity, agar-dilution MIC, organism No. 9; details: Salmonella enterica, TYPHI, read-out: Minimum Inhibitory Concentration
Method in brief: as §1

[10] = test system: Salmonella paratyphi-A 1015; test: Antibacterial activity, agar-dilution MIC, organism No. 10; details: Salmonella enterica, PARATYPHI, read-out: Minimum Inhibitory Concentration
Method in brief: as §1

[11] = test system: Salmonella shottmuelleri 8006; test: Antibacterial activity, agar-dilution MIC, organism No. 11; details: Salmonella, 8006; Organism No. 11, bouillon-agar; read-out: Minimum Inhibitory Concentration
Method in brief: as §1

[12] = test system: Salmonella enteritidis G 14; test: Antibacterial activity, agar-dilution MIC, organism No. 12; details: Salmonella enterica, ENTERITIDIS; Organism No. 12, bouillon-agar; read-out: Minimum Inhibitory Concentration
Method in brief: as §1

[13] = test system: Serratia marcescens IAM 1184; test: Antibacterial activity, agar-dilution MIC, organism No. 13; details: Serratia marcescens, IAM1184; Organism No. 13, bouillon-agar; read-out: Minimum Inhibitory Concentration
Method in brief: as §1

[14] = test system: Bacillus subtilis ATCC 6633; test: Antibacterial activity, agar-dilution MIC, organism No. 14; details: Bacillus subtilis, ATCC6633; Organism No. 14, bouillon-agar; read-out: Minimum Inhibitory Concentration
Method in brief: as §1

[15] = test system: Pseudomonas aeruginosa IFO 3445; test: Antibacterial activity, agar-dilution MIC, organism No. 15; details: Pseudomonas aeruginosa, IFO3445; Organism No. 15, bouillon-agar; read-out: Minimum Inhibitory Concentration
Method in brief: as §1

[16] = test system: Pseudomonas aeruginosa NCTC 10490; test: Antibacterial activity, agar-dilution MIC, organism No. 16; details: Pseudomonas aeruginosa, NCTC10490; Organism No. 16, bouillon-agar; read-out: Minimum Inhibitory Concentration
Method in brief: as §1

[17] = test system: Pseudomonas aeruginosa PAO 1; test: Antibacterial activity, agar-dilution MIC, organism No. 17; details: Pseudomonas aeruginosa, PAO1; Organism No. 17, bouillon-agar; read-out: Minimum Inhibitory Concentration
Method in brief: as §1

[18] = test system: Proteus morganii IFO 3848; test: Antibacterial activity, agar-dilution MIC, organism No. 18; details: Morganella morganii, IFO3848; Organism No. 18, bouillon-agar; read-out: Minimum Inhibitory Concentration
Method in brief: as §1

[19] = test system: Proteus mirabilis IFO 3849; test: Antibacterial activity, agar-dilution MIC, organism No. 19; details: Proteus mirabilis, IFO3849; Organism No. 19, bouillon-agar; read-out: Minimum Inhibitory Concentration
Method in brief: as §1

[20] = test system: Proteus vulgaris OX-19; test: Antibacterial activity, agar-dilution MIC, organism No. 20; details: Proteus vulgaris, OX19; Organism No. 20, bouillon-agar; read-out: Minimum Inhibitory Concentration
Method in brief: as §1

[21] = test system: Proteus vulgaris HX-19; test: Antibacterial activity, agar-dilution MIC, organism No. 21; details: Proteus vulgaris, HX19; Organism No. 21, bouillon-agar; read-out: Minimum Inhibitory Concentration
Method in brief: as §1

[22] = test system: Proteus rettgeri IFO 3850; test: Antibacterial activity, agar-dilution MIC, organism No. 22; details: Providencia rettgeri, IFO3850; Organism No. 22, bouillon-agar; read-out: Minimum Inhibitory Concentration
Method in brief: as §1

[23] = test system: Enterobacter aerogenes ATCC 13048; test: Antibacterial activity, agar-dilution MIC, organism No. 23; details: Klebsiella aerogenes, ATCC13048; Organism No. 23, bouillon-agar; read-out: Minimum Inhibitory Concentration
Method in brief: as §1

[24] = test system: Enterobacter cloacae 963; test: Antibacterial activity, agar-dilution MIC, organism No. 24; details: Enterobacter cloacae, 963; Organism No. 24, bouillon-agar; read-out: Minimum Inhibitory Concentration
Method in brief: as §1

[25] = test system: Micrococcus luteus ATCC 9341; test: Antibacterial activity, agar-dilution MIC, organism No. 25; details: Micrococcus luteus, ATCC9341; Organism No. 25, bouillon-agar; read-out: Minimum Inhibitory Concentration
Method in brief: as §1

[26] = test system: Streptococcus pyogenes IFO 3340; test: Antibacterial activity, agar-dilution MIC, organism No. 26; details: Streptococcus pyogenes, IFO3340; Organism No. 26, bouillon-agar; read-out: Minimum Inhibitory Concentration
Method in brief: as §1

[27] = test system: Streptococcus faecium IFO 3826; test: Antibacterial activity, agar-dilution MIC, organism No. 27; details: Enterococcus faecium, IFO3826; Organism No. 27, bouillon-agar; read-out: Minimum Inhibitory Concentration
Method in brief: as §1

[28] = test system: Mycoplasma pneumoniae IID817; test: Antimycoplasmal activity, MIC by phenol red colour change, organism No. 28; details: Mycoplasma, IID817; Organism No. 28, PPLO broth + 1% glucose, 37° C.; read-out: Minimum Inhibitory Concentration (MIC)
Procedure: Mycoplasma pneumoniae IID817 was used as the test microorganism in a culture medium prepared by adding 1% of glucose to "PPLO broth (manufactured by Difco Co.) liquid culture medium" at 37° C. with phenol red as an indicator, thereby culturing the test microorganism.

[29] = test system: Candida albicans IAM 4905; test: Antifungal activity, agar-dilution MIC, organism No. 29; details: Candida albicans, IAM4905; Organism No. 29, bouillon-agar; read-out: Minimum Inhibitory Concentration
Method in brief: as §1

[30] = test system: Aspergillus niger IFO 6342; test: Antifungal activity, agar-dilution MIC, organism No. 30; details: Aspergillus niger, IFO6342; Organism No. 30, bouillon-agar; read-out: Minimum Inhibitory Concentration
Method in brief: as §1

Question: Which MIC [1] does the source give for `[C-]#[N+]C12CC3(/C=C/C(=O)OCc4ccccc4[N+](=O)[O-])OC3C1O2` (stereo not drawn) [compound 13] here?
Answer: 0.39 mg/L (≈ 1.19 µM)

Question: What about the MIC [2] of the same compound?
Answer: 0.39 mg/L (≈ 1.19 µM)

Question: What about the MIC [3] of the same compound?
Answer: 0.39 mg/L (≈ 1.19 µM)

Question: And the MIC [4]?
Answer: 100 mg/L (≈ 305 µM)

Question: What about the MIC [5] of the same compound?
Answer: 100 mg/L (≈ 305 µM)

Question: And the MIC [6]?
Answer: 100 mg/L (≈ 305 µM)

Question: What about the MIC [7] of the same compound?
Answer: 25 mg/L (≈ 76.2 µM)

Question: And the MIC [8]?
Answer: 200 mg/L (≈ 609 µM)

Question: And the MIC [9]?
Answer: 50 mg/L (≈ 152 µM)

Question: What about the MIC [10] of the same compound?
Answer: 25 mg/L (≈ 76.2 µM)

Question: What about the MIC [11] of the same compound?
Answer: 12.5 mg/L (≈ 38.1 µM)

Question: And the MIC [12]?
Answer: 200 mg/L (≈ 609 µM)

Question: And the MIC [13]?
Answer: 100 mg/L (≈ 305 µM)

Question: What about the MIC [14] of the same compound?
Answer: 25 mg/L (≈ 76.2 µM)

Question: What about the MIC [15] of the same compound?
Answer: > 200 mg/L

Question: What about the MIC [16] of the same compound?
Answer: > 200 mg/L

Question: What about the MIC [17] of the same compound?
Answer: > 200 mg/L

Question: And the MIC [18]?
Answer: 12.5 mg/L (≈ 38.1 µM)

Question: What about the MIC [19] of the same compound?
Answer: > 200 mg/L

Question: What about the MIC [20] of the same compound?
Answer: 25 mg/L (≈ 76.2 µM)

Question: What about the MIC [21] of the same compound?
Answer: 0.1 mg/L (≈ 0.305 µM)

Question: And the MIC [22]?
Answer: 100 mg/L (≈ 305 µM)

Question: What about the MIC [23] of the same compound?
Answer: > 200 mg/L

Question: And the MIC [24]?
Answer: > 200 mg/L

Question: And the MIC [25]?
Answer: < 0.1 mg/L

Question: And the MIC [26]?
Answer: 100 mg/L (≈ 305 µM)

Question: And the MIC [27]?
Answer: 0.78 mg/L (≈ 2.38 µM)

Question: What about the MIC [28] of the same compound?
Answer: 0.2 mg/L

Question: And the MIC [29]?
Answer: 0.8 mg/L (≈ 2.44 µM)

Question: And the MIC [30]?
Answer: 6.25 mg/L (≈ 19 µM)

Question: `[C-]#[N+]C12CC3(/C=C/C(=O)OCC(=O)c4ccc(C)cc4)OC3C1O2` (stereo not drawn) [compound 6] was tested. Which MIC [1] did it give?
Answer: 0.39 mg/L (≈ 1.2 µM)

Question: What about the MIC [2] of the same compound?
Answer: 25 mg/L (≈ 76.8 µM)

Question: What about the MIC [3] of the same compound?
Answer: 0.78 mg/L (≈ 2.4 µM)

Question: What about the MIC [4] of the same compound?
Answer: > 100 mg/L

Question: And the MIC [5]?
Answer: > 100 mg/L

Question: What about the MIC [6] of the same compound?
Answer: > 100 mg/L

Question: What about the MIC [7] of the same compound?
Answer: 50 mg/L (≈ 154 µM)

Question: And the MIC [8]?
Answer: > 100 mg/L

Question: And the MIC [9]?
Answer: 50 mg/L (≈ 154 µM)

Question: What about the MIC [10] of the same compound?
Answer: > 100 mg/L

Question: And the MIC [11]?
Answer: 50 mg/L (≈ 154 µM)

Question: What about the MIC [12] of the same compound?
Answer: > 100 mg/L

Question: What about the MIC [13] of the same compound?
Answer: > 100 mg/L

Question: What about the MIC [14] of the same compound?
Answer: 100 mg/L (≈ 307 µM)

Question: And the MIC [15]?
Answer: > 100 mg/L

Question: And the MIC [16]?
Answer: > 100 mg/L

Question: And the MIC [17]?
Answer: > 100 mg/L

Question: And the MIC [18]?
Answer: 12.5 mg/L (≈ 38.4 µM)

Question: What about the MIC [19] of the same compound?
Answer: > 100 mg/L

Question: What about the MIC [20] of the same compound?
Answer: 1.56 mg/L (≈ 4.8 µM)

Question: And the MIC [21]?
Answer: 0.2 mg/L (≈ 0.615 µM)

Question: What about the MIC [22] of the same compound?
Answer: > 100 mg/L

Question: And the MIC [23]?
Answer: > 100 mg/L

Question: And the MIC [24]?
Answer: > 100 mg/L

Question: What about the MIC [25] of the same compound?
Answer: 0.39 mg/L (≈ 1.2 µM)

Question: And the MIC [26]?
Answer: < 100 mg/L

Question: And the MIC [27]?
Answer: 25 mg/L (≈ 76.8 µM)

Question: What about the MIC [28] of the same compound?
Answer: < 0.2 mg/L

Question: And the MIC [29]?
Answer: 0.8 mg/L (≈ 2.46 µM)

Question: And the MIC [30]?
Answer: 3.13 mg/L (≈ 9.62 µM)
